From PMC3672920, “Sulfated Metabolites of Polychlorinated Biphenyls Are High-Affinity Ligands for the Thyroid Hormone Transport Protein Transthyretin” (Environmental Health Perspectives, 2013)
Structures can show the parent of a compound that is named as a salt.

Columns and labels:
recombinant hSULT1A1 = system: T1, recombinant hSULT1A1; experiment: Sulfotransferase assay (PAP formation, HPLC); type: in vitro ADME, human; conditions: 200 µM PAPS, 37°C, pH 7.0, 10 min; for substrate for human SULT1A1: 0, 10, 20 or 30 µM OH-PCB, cytosolic extract of E. coli expressing hSULT1A1; for specific activity (rate of sulfation) with hSULT1A1, ranking in words: 10–30 µM OH-PCB
T1 construct: purchased Xenotech; host or cells: E. coli
Protocol: Sulfotransferase assay. The assays for sulfation of OH-PCBs catalyzed by hSULT1A1 were conducted according to a previously published procedure ([Liu et al. 2009]). Assay mixtures containing 0, 10, 20, or 30 µM of the potential substrate were preincubated at 37°C in the presence of 200 µM PAPS and 7.5 mM 2-mercaptoethanol in 250 mM potassium phosphate at pH 7.0. After adding 1 µL of cytosolic extract of E. coli expressing hSULT1A1 (10 µg cytosolic protein), the reaction mixture (total volume 30 µL) was incubated for 10 min before the reaction was terminated by the addition of 30 µL methanol. Samples (20 µL) were subsequently analyzed by HPLC to determine the amount of PAP formed in the reaction ([Sheng et al. 2001]).

TTR = target: T2, TTR (Homo sapiens, UniProt P02766); experiment: HPLC analysis of PCB sulfates after incubation with TTR (stability, reversibility); type: physicochemical; conditions: 5 µM PCB sulfate, 0.5 µM TTR, phosphate buffer pH 7.4, 25°C, up to 120 min
T2 construct: TTR purified from human plasma (> 95%); purchased Sigma-Aldrich; host or cells: human plasma
Protocol: HPLC analysis of PCB sulfates. TTR (0.5 µM) and PCB sulfate (5 µM) were incubated in phosphate buffer (50 mM sodium phosphate, 100 mM NaCl; pH 7.4) at 25°C (± 0.5°C) for 120 min. After 0, 60, and 120 min, 20 µL samples were analyzed for PCB sulfates by chromatography on a C18 HPLC column with a linear acetonitrile gradient (15–95%) in triethylammonium acetate (1% vol/vol; pH 7.5). Detailed HPLC conditions and representative chromatograms are provided in Supplemental Material, Figure S3 (http://dx.doi.org/10.1289/ehp.1206198).
Supplemental Material, Fi g u r e S6: PCB sulfates are stable upon incubation with TTR, and the interaction is non-covalent. 5µM samples of PCB sulfates were incubated for up t o 120 […]
sodium phosphate, 100 mM NaCl, pH 7.4) at 25 °C. Their quantitative recover y (as compared to a corresponding 5 µM PCB sulfate standard) by HPLC indicated non- covalent binding interactions between PCB sulfates and TTR.
(1 picture or pasted object on this page, not shown here)

[1] = target: T3, TTR purified from human plasma (Homo sapiens, UniProt P02766); experiment: ANS displacement assay (fluorescence probe displacement) for binding to TTR; conditions: low-affinity (second) binding site on TTR; ligand ≤ 2,000 nM; all data points fit to two-site binding equation; read-out: Kd2
T3 construct: TTR purified from human plasma (> 95%); purchased Sigma-Aldrich; host or cells: human plasma
Protocol: Three fluorescence measurements were averaged per determination, and at least three separate determinations were made at each ligand concentration. The protocol was optimized for ligand concentrations of ≤ 2,000 nM, and assays were conducted at 25°C (± 0.2°C) in quartz cuvettes with a 1-cm path length. […] Binding data were evaluated by fitting the means of each determination to both a one-site plus nonspecific binding equation [y = (Bmax1 × x)/(Kd1 + x) + Ns] and a two-site binding equation [y = (Bmax1 × x)/(Kd1 + x) + (Bmax2 × x)/(Kd2 + x)]. In these equations, Kd1 is the dissociation constant for the TTR-ligand complex and Kd2 is the dissociation constant for the TTR complex with two bound ligands, Bmax1 and Bmax2 are the relative changes in fluorescence required to saturate the respective binding sites and Ns is a constant representing low-affinity interactions. […] The variables x and y represent ligand concentrations and changes in fluorescence (Δ fluorescence), respectively. […] In order to determine Kd2 values, all available data points were fit to the two-site binding equation.

Row | SMILES | melting point | substrate for human SULT1A1 (recombinant hSULT1A1) | specific activity (rate of sulfation) with hSULT1A1, ranking in words (recombinant hSULT1A1) | recovery of PCB sulfate by HPLC after incubation with TTR (stability) (TTR) | Kd [1] [µM]
1 | O=S(=O)(O)Oc1ccc(-c2cccc(Cl)c2)cc1Cl (as salt: ammonium) [4´PCB 11 sulfate, 3,3´-dichloro-4´-sulfooxy-biphenyl] | 220 °C (dec.) |  |  |  | 
2 | Oc1ccccc1-c1ccc(Cl)cc1 [2´OH-PCB 3, 4´-chloro-biphenyl-2-ol] |  | substrates | highest specific activities |  | 
3 | O=S(=O)(O)Oc1ccccc1-c1ccc(Cl)cc1 [2´PCB 3 sulfate, 2´-sulfooxy-4-chloro-biphenyl] |  |  |  | quantitatively recovered | 
4 | Oc1cccc(-c2ccc(Cl)cc2)c1 [3´OH-PCB 3, 4´-chloro-biphenyl-3-ol] |  | substrates | highest specific activities |  | 
5 | O=S(=O)(O)Oc1cccc(-c2ccc(Cl)cc2)c1 [3´PCB 3 sulfate, 3´-sulfooxy-4-chloro-biphenyl] |  |  |  | quantitatively recovered | 
6 | Oc1ccc(-c2ccc(Cl)cc2)cc1 [4´OH-PCB 3, 4´-chloro-biphenyl-4-ol] |  | substrates | slightly lower specific activities |  | 
7 | Oc1ccc(-c2cccc(Cl)c2)cc1Cl [4´OH-PCB 11, 3,3´-dichloro-biphenyl-4-ol] |  | substrates | slightly lower specific activities |  | 0.624 ± 0.207
8 | Oc1ccc(-c2ccc(Cl)c(Cl)c2)cc1 [4´OH-PCB 12, 3´,4´-dichloro-biphenyl-4-ol] |  | substrates | slightly lower specific activities |  | 0.825 ± 0.047
9 | O=S(=O)(O)Oc1ccc(-c2ccc(Cl)cc2)cc1 [4´PCB 3 sulfate, 4-chloro-4´-sulfooxy-biphenyl] |  |  |  | quantitatively recovered | 
10 | O=S(=O)(O)Oc1ccc(-c2cccc(Cl)c2)cc1Cl [4´PCB 11 sulfate, 3,3´-dichloro-4´-sulfooxy-biphenyl] |  |  |  | quantitatively recovered | 0.624 ± 0.063
11 | O=S(=O)(O)Oc1ccc(-c2ccc(Cl)c(Cl)c2)cc1 [4´PCB 12 sulfate, 3,4-dichloro-4´-sulfooxy-biphenyl] |  |  |  | quantitatively recovered | 0.742 ± 0.058
